The values that follow come from patent publication US20140057895A1, “INDAZOLE- AND PYRROLOPYRIDINE-DERIVATIVE AND PHARMACEUTICAL USE THEREOF” (priority 2011, published 2014).

SMILES strings stand for the structures.

The target in experiment [1] is T1, Human 5-HT4 receptor (5-HT4b) (Homo sapiens, UniProt Q13639).
T1 construct: expressed in transfected cells; membrane preparation
Nature of the experiment: Test Example 3: Human 5-HT4 receptor binding assay, membranes of CHO-K1 cells stably expressing 5-HT4b receptors (Table 99). The settings on record: mean value of each group. The procedure, abridged: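 Radioligand displacement: [3H]-GR113808 (0.1 nM) bound to CHO-K1 5-HT4b membranes for 30 min at 37 °C in Hepes buffer (50 mM, pH 7.4). Specific binding is total minus that with 30 μM serotonin; filter-bound radioactivity counted, IC50 derived from percent inhibition.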

Another experiment addresses T2, human 5-HT4b receptor (Homo sapiens, UniProt Q13639).
T2 construct: expressed in transfected cells; host or cells: CHO cells (G418 selection)
Nature of the experiment: Test Example 4: Serotonin 4 (5-HT4) receptor agonist activity assay, cAMP HTRF in CHO cells (Table 100). The format is cell-based. The note with it: mean value; for Emax: CHO, 0.25 h, intrinsic activity, maximal activity of 5-HT defined as 100%, read-out: IA (%); for EC50: concentration showing 50% of IA. Put shortly:
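Read-out is HTRF cAMP (time-resolved fluorescence 620/665 nm after 1 h RT with cAMP-cryptate and cAMP-d2), from recombinant CHO cells bearing human 5-HT4b treated with compound 15 min at 31° C. in Hanks/HEPES buffer pH 7.4. IA (%) scaled to peak 5-HT effect over 10^−11–10^−7 M; EC50 is concentration giving half that IA.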
A general note: In TR-FRET formats the signal depends on donor and acceptor labels being close together.

T2 sequence (Q13639 whole entry): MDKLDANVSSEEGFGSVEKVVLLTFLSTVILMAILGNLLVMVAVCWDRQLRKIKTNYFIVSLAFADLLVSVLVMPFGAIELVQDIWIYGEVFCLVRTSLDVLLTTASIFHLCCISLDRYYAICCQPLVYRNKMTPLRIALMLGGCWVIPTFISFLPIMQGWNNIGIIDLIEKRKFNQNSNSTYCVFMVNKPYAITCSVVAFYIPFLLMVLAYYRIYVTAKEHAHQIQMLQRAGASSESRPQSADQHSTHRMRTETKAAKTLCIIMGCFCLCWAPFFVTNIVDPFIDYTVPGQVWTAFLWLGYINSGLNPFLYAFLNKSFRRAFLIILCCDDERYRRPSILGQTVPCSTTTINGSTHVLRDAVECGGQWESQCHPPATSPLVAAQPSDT
T1 sequence (Q13639 whole entry): as above

The term IC50 denotes the concentration that inhibits the measured activity by half. The EC50 is the midpoint of the concentration-response curve. A low value points to an effect from little substance. For `CC(=O)N1CC(CN2CC[C@@H](Cc3nc(-n4nc(C(C)C)c5cccc(F)c54)no3)C2)C1` [Example 513, 1-(3-{[(3S)-3-({3-[7-fluoro-3-(propan-2-yl)-1H-indazol-1-yl]-1,2,4-oxadiazol-5-yl}methyl)pyrrolidin-1-yl]methyl}azetidin-1-yl)ethanone], the IC50 in experiment [1] was under 20 nM. At human 5-HT4b receptor, the Emax is 81% and the EC50 was 10.2 nM.

`CC(=O)N1CCC[C@@H]1CN1CC[C@H](Cc2nc(-n3nc(C(C)C)c4cccc(F)c43)no2)C1` [Example 499, 1-[(2R)-2-{[(3R)-3-({3-[7-fluoro-3-(propan-2-yl)-1H-indazol-1-yl]-1,2,4-oxadiazol-5-yl}methyl)pyrrolidin-1-yl]methyl}pyrrolidin-1-yl]ethanone] registered an IC50 in experiment [1] of 48.6 nM. At human 5-HT4b receptor, the Emax stood at 82% and the EC50 was 7.8 nM.

Take `CC(C)c1nn(-c2noc(C3CC(NC4CCOCC4)C3)n2)c2c(F)cccc12` (stereo not drawn) [Example 595, N-(3-{3-[7-fluoro-3-(propan-2-yl)-1H-indazol-1-yl]-1,2,4-oxadiazol-5-yl}cyclobutyl)tetrahydro-2H-pyran-4-amine]: the half-maximal inhibitory concentration (IC50) in experiment [1] is under 20 nM. Also, on human 5-HT4b receptor, the Emax was 93% and the 50% effective concentration (EC50) came out at 6.9 nM.

For `COCCN(C1CCOCC1)[C@H]1C[C@@H](c2nc(-n3nc(C(C)C)c4cccc(F)c43)no2)C1` [Example 614, N-(cis-3-{3-[7-fluoro-3-(propan-2-yl)-1H-indazol-1-yl]-1,2,4-oxadiazol-5-yl}cyclobutyl)-N-(2-methoxyethyl)tetrahydro-2H-pyran-4-amine], in experiment [1], the half-maximal inhibitory concentration (IC50) was under 20 nM. At human 5-HT4b receptor, the Emax was found to be 93% and it took 10.9 nM to reach a half-maximal effect (EC50).

In the case of `CC(C)c1nn(-c2noc(C3CCN(C4(C)CCN(C(=O)N(C)C)CC4)CC3)n2)c2c(F)cccc12` [Example 489, 4-{3-[7-fluoro-3-(propan-2-yl)-1H-indazol-1-yl]-1,2,4-oxadiazol-5-yl}-N,N,4′-trimethyl-1,4′-bipiperidine-1′-carboxamide], the IC50 in experiment [1] was under 20 nM. Also, at human 5-HT4b receptor, the Emax amounted to 104% and the EC50 was 2.5 nM.

`CC(=O)N1CCC(CN[C@H]2C[C@@H](c3nc(-n4nc(C(C)C)c5cccc(F)c54)no3)C2)CC1` [Example 590, 1-(4-{[(cis-3-{3-[7-fluoro-3-(propan-2-yl)-1H-indazol-1-yl]-1,2,4-oxadiazol-5-yl}cyclobutyl)amino]methyl]piperidin-1-yl)ethanone] yielded a half-inhibitory concentration (IC50) in experiment [1] of 12.6 nM. On human 5-HT4b receptor, the Emax is 101% and the EC50 is 2.8 nM.

In experiment [1], `CC(C)c1nn(-c2noc(C3CCN(C4(C)CCN(S(C)(=O)=O)CC4)CC3)n2)c2c(F)cccc12` [Example 488, 4-{3-[7-fluoro-3-(propan-2-yl)-1H-indazol-1-yl]-1,2,4-oxadiazol-5-yl}-4′-methyl-1′-(methylsulfonyl)-1,4′-bipiperidine] registered an IC50 of under 20 nM. In addition, at human 5-HT4b receptor, the Emax stood at 106% and a half-maximal effect (EC50) was put at 2.9 nM.

Compound `CC(=O)N1CCC(N[C@H]2C[C@@H](c3nc(-n4nc(C(C)C)c5cccc(F)c54)no3)C2)CC1` [Example 593, 1-{4-[(cis-3-{3-[7-fluoro-3-(propan-2-yl)-1H-indazol-1-yl]-1,2,4-oxadiazol-5-yl}cyclobutyl)amino]piperidin-1-yl}ethanone] showed an IC50 in experiment [1] of under 20 nM. Further, on human 5-HT4b receptor, the Emax is 99% and the EC50 is 2.7 nM.

Turning to `CCC(C)c1nn(-c2noc(C3CCN(C4CCN(C(=O)CO)CC4)CC3)n2)c2c(F)cccc12` (stereo not drawn) [Example 528, 1-(4-{3-[3-(butan-2-yl)-7-fluoro-1H-indazol-1-yl]-1,2,4-oxadiazol-5-yl}-1,4′-bipiperidin-1′-yl)-2-hydroxyethanone], the IC50 in experiment [1] is under 20 nM. Besides, at human 5-HT4b receptor, the Emax is 121% and the concentration for a half-maximal effect (EC50) was found to be 17.3 nM.

Take `CC(C)c1nn(-c2noc(C3CC(NCC4CCOCC4)C3)n2)c2c(F)cccc12` (stereo not drawn) [Example 610, 3-{3-[7-fluoro-3-(propan-2-yl)-1H-indazol-1-yl]-1,2,4-oxadiazol-5-yl}-N-(tetrahydro-2H-pyran-4-ylmethyl)cyclobutanamine]: in experiment [1], the IC50 is under 20 nM. For the same compound, at human 5-HT4b receptor, the Emax was 103% and a half-maximal effect (EC50) was put at 9.1 nM.

In turn, `CC(C)c1nn(-c2noc(C3CCN(C4(C)CCN(C(=O)CO)CC4)CC3)n2)c2c(F)cccc12` [Example 537, 1-(4-{3-[7-fluoro-3-(propan-2-yl)-1H-indazol-1-yl]-1,2,4-oxadiazol-5-yl}-4′-methyl-1,4′-bipiperidin-1′-yl)-2-hydroxyethanone] displayed an IC50 in experiment [1] of under 20 nM. Also, on human 5-HT4b receptor, the Emax was determined as 111% and a half-maximal effect (EC50) was put at 1.3 nM.

For `COCCNC1CC(c2nc(-n3nc(C(C)C)c4cccc(F)c43)no2)C1` (stereo not drawn) [Example 605, 3-{3-[7-fluoro-3-(propan-2-yl)-1H-indazol-1-yl]-1,2,4-oxadiazol-5-yl}-N-(2-methoxyethyl)cyclobutanamine], the IC50 in experiment [1] is under 20 nM. Besides, on human 5-HT4b receptor, the Emax was 113% and a half-maximal effect (EC50) was put at 2.3 nM.

In turn, `CC(C)c1nn(-c2noc(C3CCN(C[C@@H]4CCN(S(C)(=O)=O)C4)CC3)n2)c2c(F)cccc12` [Example 585, 7-fluoro-1-[5-(1-{[(3S)-1-(methylsulfonyl)pyrrolidin-3-yl]methyl}piperidin-4-yl)-1,2,4-oxadiazol-3-yl]-3-(propan-2-yl)-1H-indazole] displayed an IC50 in experiment [1] of under 20 nM. Also, at human 5-HT4b receptor, the Emax turned out to be 109% and the response was half-maximal at 2.4 nM (EC50).

Compound `CC(C)c1nn(-c2noc(C[C@@H]3CCN(C[C@H]4CCN(C(=O)CO)C4)C3)n2)c2c(F)cccc12` [Example 550, 1-[(3R)-3-{[(3S)-3-({3-[7-fluoro-3-(propan-2-yl)-1H-indazol-1-yl]-1,2,4-oxadiazol-5-yl}methyl)pyrrolidin-1-yl]methyl}pyrrolidin-1-yl]-2-hydroxyethanone] displayed a 50% inhibitory concentration (IC50) in experiment [1] of under 20 nM. Moreover, on human 5-HT4b receptor, the Emax was 85% and a half-maximal response (EC50) required 5.1 nM.

`CC(C)c1nn(-c2noc(C[C@H]3CCN(C[C@@H]4CCN(C(=O)CO)C4)C3)n2)c2c(F)cccc12` [Example 543, 1-[(3S)-3-{[(3R)-3-({3-[7-fluoro-3-(propan-2-yl)-1H-indazol-1-yl]-1,2,4-oxadiazol-5-yl}methyl)pyrrolidin-1-yl]methyl}pyrrolidin-1-yl]-2-hydroxyethanone] came in with a half-inhibitory concentration (IC50) in experiment [1] of under 20 nM. At human 5-HT4b receptor, the Emax stood at 92% and the midpoint of the response, the EC50, lay at 3.7 nM.

In experiment [1], `CC(C)c1nn(-c2noc(C[C@@H]3CCN(C[C@H]4CCCN4C(=O)CO)C3)n2)c2c(F)cccc12` [Example 547, 1-[(2R)-2-{[(3S)-3-({3-[7-fluoro-3-(propan-2-yl)-1H-indazol-1-yl]-1,2,4-oxadiazol-5-yl}methyl)pyrrolidin-1-yl]methyl}pyrrolidin-1-yl]-2-hydroxyethanone] came in with a 50% inhibitory concentration (IC50) of under 20 nM. Besides, at human 5-HT4b receptor, the Emax stood at 54% and a half-maximal response (EC50) required 14.1 nM.

In experiment [1], `CCc1nn(-c2noc(C3CCN(C[C@@H]4CCCN4C(=O)CO)CC3)n2)c2c(F)cccc12` [Example 583, 1-[(2S)-2-({4-[3-(3-ethyl-7-fluoro-1H-indazol-1-yl)-1,2,4-oxadiazol-5-yl]piperidin-1-yl}methyl)pyrrolidin-1-yl]-2-hydroxyethanone] registered a 50% inhibitory concentration (IC50) of under 20 nM. Besides, on human 5-HT4b receptor, the Emax turned out to be 84% and it took 5.9 nM to reach a half-maximal effect (EC50).

In experiment [1], `COCCN(CC1CCCO1)C1CC(c2nc(-n3nc(C(C)C)c4cccc(F)c43)no2)C1` (stereo not drawn) [Example 612, 3-{3-[7-fluoro-3-(propan-2-yl)-1H-indazol-1-yl]-1,2,4-oxadiazol-5-yl}-N-(2-methoxyethyl)-N-(tetrahydrofuran-2-ylmethyl)cyclobutanamine] showed an IC50 of 20.5 nM. Moreover, on human 5-HT4b receptor, the Emax came out at 82% and the EC50 was 14.6 nM.

`CC(=O)N1CC[C@@H](CN2CC[C@@H](Cc3nc(-n4nc(C(C)C)c5cccc(F)c54)no3)C2)C1` [Example 515] had a half-inhibitory concentration (IC50) in experiment [1] of under 20 nM. At human 5-HT4b receptor, the Emax was 70% and the concentration giving a half-maximal response (EC50) was 8.5 nM.

Compound `CC(=O)N1CCC[C@H]1CN1CC[C@@H](Cc2nc(-n3nc(C(C)C)c4cccc(F)c43)no2)C1` [Example 509, 1-[(2S)-2-{[(3S)-3-({3-[7-fluoro-3-(propan-2-yl)-1H-indazol-1-yl]-1,2,4-oxadiazol-5-yl}methyl)pyrrolidin-1-yl]methyl)pyrrolidin-1-yl]ethanone] gave a half-inhibitory concentration (IC50) in experiment [1] of 27.4 nM. For the same compound, at human 5-HT4b receptor, the Emax amounted to 56% and it took 16.3 nM to reach a half-maximal effect (EC50).

On to `CC(=O)N1CC[C@H](NC2CC(c3nc(-n4nc(C(C)C)c5cccc(F)c54)no3)C2)C1` (stereo partly drawn) [Example 591, 1-{(3S)-3-[(3-{3-[7-fluoro-3-(propan-2-yl)-1H-indazol-1-yl]-1,2,4-oxadiazol-5-yl}cyclobutyl)amino]pyrrolidin-1-yl}ethanone], for which the half-inhibitory concentration (IC50) in experiment [1] is under 20 nM. Further, on human 5-HT4b receptor, the Emax was 97% and the concentration giving a half-maximal response (EC50) was 2.6 nM.

Turning to `CC(C)c1nn(-c2noc(C[C@@H]3CCN(C[C@@H]4CCN(S(C)(=O)=O)C4)C3)n2)c2c(F)cccc12` [Example 516, 7-fluoro-1-(5-{[(3S)-1-{[(3S)-1-(methylsulfonyl)pyrrolidin-3-yl]methyl}pyrrolidin-3-yl]methyl}-1,2,4-oxadiazol-3-yl)-3-(propan-2-yl)-1H-indazole], the IC50 in experiment [1] is under 20 nM. Moreover, at human 5-HT4b receptor, the Emax came out at 75% and a half-maximal response (EC50) required 7.2 nM.
